Among the data in ChEMBL document CHEMBL5465560, “Selectivity Literature for EUbOPEN Chemogenomic Library” (2024) are % of control, % of inhibition and % binding values, retold here.

For test [1], the target named is RAC-beta serine/threonine-protein kinase (Homo sapiens) (UniProt P31751). As to the kind of experiment: Selectivity interaction (Kinase panel (Z-LYTE Assay)) EUB0001632a AKT2. To be noted: at 10 µM.
The target of test [2] is T1, Hormonally up-regulated neu tumor-associated kinase (Homo sapiens) (UniProt P57058).
T1 sequence (whole entry): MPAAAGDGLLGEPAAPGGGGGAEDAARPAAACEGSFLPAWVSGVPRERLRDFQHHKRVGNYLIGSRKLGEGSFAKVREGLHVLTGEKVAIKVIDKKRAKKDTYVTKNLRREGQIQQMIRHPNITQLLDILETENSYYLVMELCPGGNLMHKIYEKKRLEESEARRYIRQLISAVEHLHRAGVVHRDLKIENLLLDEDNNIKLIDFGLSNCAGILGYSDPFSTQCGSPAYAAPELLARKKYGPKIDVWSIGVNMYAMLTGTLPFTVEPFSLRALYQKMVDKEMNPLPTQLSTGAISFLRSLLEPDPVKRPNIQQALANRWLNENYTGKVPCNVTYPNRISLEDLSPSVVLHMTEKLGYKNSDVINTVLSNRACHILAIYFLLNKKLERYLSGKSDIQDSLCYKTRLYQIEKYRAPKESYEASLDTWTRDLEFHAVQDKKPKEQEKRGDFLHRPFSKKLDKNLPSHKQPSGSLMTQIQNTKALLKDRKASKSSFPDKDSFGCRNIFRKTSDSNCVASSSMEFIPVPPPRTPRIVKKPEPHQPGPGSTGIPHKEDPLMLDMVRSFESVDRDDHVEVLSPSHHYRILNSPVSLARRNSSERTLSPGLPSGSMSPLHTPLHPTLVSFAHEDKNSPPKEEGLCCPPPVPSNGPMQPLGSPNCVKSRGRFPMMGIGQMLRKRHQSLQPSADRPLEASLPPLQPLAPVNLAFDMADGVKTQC
Put plainly: Selectivity interaction (KinomeScan (DiscoverX)) EUB0000595a HUNK. To be noted: at 10 µM.

Test [3] concerns the target Mitogen-activated protein kinase 10 (Homo sapiens, UniProt P53779). Put plainly: Selectivity interaction (KinomeScan (DiscoverX)) EUB0000595a MAPK10. To be noted: at 10 µM.
The target of test [4] is Casein kinase I isoform alpha (Homo sapiens, UniProt P48729). Put plainly: Selectivity interaction (KinomeScan (DiscoverX)) EUB0000666a CSNK1A1. To be noted: at 10 µM.
Chain of Casein kinase I isoform alpha (P48729 2-337 limits assumed): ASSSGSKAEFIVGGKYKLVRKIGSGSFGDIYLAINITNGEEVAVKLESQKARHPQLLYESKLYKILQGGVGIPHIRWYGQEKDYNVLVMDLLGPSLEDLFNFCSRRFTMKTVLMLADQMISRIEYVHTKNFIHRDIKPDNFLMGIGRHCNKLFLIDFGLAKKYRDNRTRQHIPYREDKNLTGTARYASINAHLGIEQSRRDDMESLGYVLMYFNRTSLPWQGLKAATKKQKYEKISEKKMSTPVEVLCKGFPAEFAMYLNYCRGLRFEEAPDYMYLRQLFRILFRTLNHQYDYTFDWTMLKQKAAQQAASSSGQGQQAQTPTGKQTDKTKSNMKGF
The target of test [5] is G protein-coupled receptor kinase 4 (Homo sapiens) (UniProt P32298). To be noted: at 10 µM.
Chain of G protein-coupled receptor kinase 4 (Homo sapiens) (P32298 whole entry, looked up): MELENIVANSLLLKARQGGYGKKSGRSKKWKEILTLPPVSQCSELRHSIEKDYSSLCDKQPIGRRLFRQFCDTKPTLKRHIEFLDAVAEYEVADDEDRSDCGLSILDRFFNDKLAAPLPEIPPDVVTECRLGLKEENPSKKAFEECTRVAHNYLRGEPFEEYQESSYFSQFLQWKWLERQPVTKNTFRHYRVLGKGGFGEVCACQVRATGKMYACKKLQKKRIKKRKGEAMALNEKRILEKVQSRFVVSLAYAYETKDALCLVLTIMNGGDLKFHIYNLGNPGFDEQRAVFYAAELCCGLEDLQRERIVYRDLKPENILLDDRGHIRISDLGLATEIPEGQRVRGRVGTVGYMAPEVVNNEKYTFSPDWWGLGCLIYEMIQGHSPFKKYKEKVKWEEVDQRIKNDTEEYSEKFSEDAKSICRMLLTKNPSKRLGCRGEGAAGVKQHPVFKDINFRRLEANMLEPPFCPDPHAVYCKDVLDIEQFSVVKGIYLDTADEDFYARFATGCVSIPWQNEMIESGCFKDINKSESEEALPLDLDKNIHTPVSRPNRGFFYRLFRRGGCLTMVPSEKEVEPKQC
Test [6] deals with Serine/threonine-protein kinase 26 (Homo sapiens, UniProt Q9P289). As to the kind of experiment: Selectivity interaction (ActivX KiNativ screen (kinase selectivity in THP-1 cell lysates)) EUB0000639a STK26. The class given is subcellular. To be noted: lysate, at 0.01 µM.
Chain of Serine/threonine-protein kinase 26 (Q9P289 2-416 limits assumed): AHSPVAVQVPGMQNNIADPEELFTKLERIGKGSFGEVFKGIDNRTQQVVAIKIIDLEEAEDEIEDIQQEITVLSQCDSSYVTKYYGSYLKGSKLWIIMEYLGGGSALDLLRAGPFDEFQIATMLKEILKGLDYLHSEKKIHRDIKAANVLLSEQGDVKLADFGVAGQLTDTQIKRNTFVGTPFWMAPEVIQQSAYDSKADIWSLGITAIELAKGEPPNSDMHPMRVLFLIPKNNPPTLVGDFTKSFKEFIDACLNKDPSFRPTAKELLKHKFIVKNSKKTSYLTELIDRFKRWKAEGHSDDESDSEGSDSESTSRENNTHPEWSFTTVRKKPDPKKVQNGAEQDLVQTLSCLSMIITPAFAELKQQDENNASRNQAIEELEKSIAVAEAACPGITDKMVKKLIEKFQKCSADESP
For test [7], the system named is Tyrosine-protein kinase ABL1 (Homo sapiens), P00519 [T315I]. Put plainly: Selectivity interaction (KinomeScan (DiscoverX)) EUB0000045b ABL1. To be noted: at 1 µM.
Test [8] has as its target Serine/threonine-protein kinase/endoribonuclease IRE1 (Homo sapiens) (UniProt O75460). Put plainly: Selectivity interaction (Ambit KINOMEscan and KiNATiv profiling in Jurkat cells) EUB0000090b ERN1. To be noted: at 1 µM. In kind it is cell-based.
In test [9] the target is 5'-AMP-activated protein kinase catalytic subunit alpha-2 (Homo sapiens) (UniProt P54646). Put plainly: Selectivity interaction (Ambit KINOMEscan and KiNATiv profiling in Jurkat cells) EUB0000090b PRKAA2. The class given is cell-based. To be noted: at 1 µM.
Chain of 5'-AMP-activated protein kinase catalytic subunit alpha-2 (Homo sapiens) (P54646 whole entry, looked up, canonical isoform): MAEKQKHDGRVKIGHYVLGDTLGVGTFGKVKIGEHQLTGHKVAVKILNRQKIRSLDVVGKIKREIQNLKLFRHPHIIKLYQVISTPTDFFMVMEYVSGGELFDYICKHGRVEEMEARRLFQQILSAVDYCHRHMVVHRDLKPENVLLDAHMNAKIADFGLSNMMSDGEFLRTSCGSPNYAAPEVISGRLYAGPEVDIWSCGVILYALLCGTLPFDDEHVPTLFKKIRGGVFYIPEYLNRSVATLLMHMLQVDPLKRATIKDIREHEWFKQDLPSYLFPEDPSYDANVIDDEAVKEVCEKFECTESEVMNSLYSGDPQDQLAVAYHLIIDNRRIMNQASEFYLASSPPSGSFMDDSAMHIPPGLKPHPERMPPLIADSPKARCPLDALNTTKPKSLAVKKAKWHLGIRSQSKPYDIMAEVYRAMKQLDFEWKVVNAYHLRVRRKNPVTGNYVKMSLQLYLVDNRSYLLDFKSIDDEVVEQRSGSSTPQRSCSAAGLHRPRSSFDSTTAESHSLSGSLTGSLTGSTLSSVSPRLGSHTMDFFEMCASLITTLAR
The target of test [10] is Casein kinase I isoform gamma-3 (Homo sapiens) (UniProt Q9Y6M4). As to the kind of experiment: Selectivity interaction (KinomeScan (DiscoverX)) EUB0000655a CSNK1G3. To be noted: at 10 µM.
Chain of Casein kinase I isoform gamma-3 (Homo sapiens) (Q9Y6M4 whole entry, looked up, canonical isoform): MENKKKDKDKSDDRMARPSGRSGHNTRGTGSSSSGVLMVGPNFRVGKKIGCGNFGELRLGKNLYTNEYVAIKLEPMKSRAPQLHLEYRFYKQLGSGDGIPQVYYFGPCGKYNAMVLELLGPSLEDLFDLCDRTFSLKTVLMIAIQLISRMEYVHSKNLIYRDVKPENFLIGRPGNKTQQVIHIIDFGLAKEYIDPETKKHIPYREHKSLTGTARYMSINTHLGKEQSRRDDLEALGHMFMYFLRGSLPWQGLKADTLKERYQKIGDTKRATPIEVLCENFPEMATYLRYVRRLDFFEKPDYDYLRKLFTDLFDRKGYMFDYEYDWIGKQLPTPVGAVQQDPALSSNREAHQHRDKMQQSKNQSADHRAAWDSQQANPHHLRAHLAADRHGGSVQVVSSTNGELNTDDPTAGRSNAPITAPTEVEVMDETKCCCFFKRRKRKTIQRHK
Test [11] has as its target Mitogen-activated protein kinase 6 (Homo sapiens) (UniProt Q16659). As to the kind of experiment: Selectivity interaction (KinomeScan (DiscoverX)) EUB0000618a MAPK6. To be noted: at 10 µM.
For test [12], the target named is Serine/threonine-protein kinase 33 (Homo sapiens) (UniProt Q9BYT3). As to the kind of experiment: Selectivity interaction (KinomeScan (DiscoverX)) EUB0001079a STK33. To be noted: at 1 µM.
Chain of Serine/threonine-protein kinase 33 (Homo sapiens) (Q9BYT3 whole entry, looked up): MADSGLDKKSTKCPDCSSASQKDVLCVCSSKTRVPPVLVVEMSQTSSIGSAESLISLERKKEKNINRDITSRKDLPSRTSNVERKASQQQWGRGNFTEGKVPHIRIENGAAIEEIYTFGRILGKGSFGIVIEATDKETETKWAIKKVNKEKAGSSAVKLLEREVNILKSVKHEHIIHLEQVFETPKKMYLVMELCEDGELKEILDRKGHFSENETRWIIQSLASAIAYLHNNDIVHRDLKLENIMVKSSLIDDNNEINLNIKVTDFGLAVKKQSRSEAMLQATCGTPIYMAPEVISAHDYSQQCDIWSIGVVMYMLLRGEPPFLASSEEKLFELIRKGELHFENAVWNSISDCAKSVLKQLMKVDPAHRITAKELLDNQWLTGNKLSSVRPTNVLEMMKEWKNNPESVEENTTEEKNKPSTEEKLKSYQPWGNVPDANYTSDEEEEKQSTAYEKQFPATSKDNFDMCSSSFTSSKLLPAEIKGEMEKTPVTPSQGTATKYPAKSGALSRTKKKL
The target in test [13] is T2, Receptor-interacting serine/threonine-protein kinase 1 (Homo sapiens) (UniProt Q13546).
T2 sequence (whole entry): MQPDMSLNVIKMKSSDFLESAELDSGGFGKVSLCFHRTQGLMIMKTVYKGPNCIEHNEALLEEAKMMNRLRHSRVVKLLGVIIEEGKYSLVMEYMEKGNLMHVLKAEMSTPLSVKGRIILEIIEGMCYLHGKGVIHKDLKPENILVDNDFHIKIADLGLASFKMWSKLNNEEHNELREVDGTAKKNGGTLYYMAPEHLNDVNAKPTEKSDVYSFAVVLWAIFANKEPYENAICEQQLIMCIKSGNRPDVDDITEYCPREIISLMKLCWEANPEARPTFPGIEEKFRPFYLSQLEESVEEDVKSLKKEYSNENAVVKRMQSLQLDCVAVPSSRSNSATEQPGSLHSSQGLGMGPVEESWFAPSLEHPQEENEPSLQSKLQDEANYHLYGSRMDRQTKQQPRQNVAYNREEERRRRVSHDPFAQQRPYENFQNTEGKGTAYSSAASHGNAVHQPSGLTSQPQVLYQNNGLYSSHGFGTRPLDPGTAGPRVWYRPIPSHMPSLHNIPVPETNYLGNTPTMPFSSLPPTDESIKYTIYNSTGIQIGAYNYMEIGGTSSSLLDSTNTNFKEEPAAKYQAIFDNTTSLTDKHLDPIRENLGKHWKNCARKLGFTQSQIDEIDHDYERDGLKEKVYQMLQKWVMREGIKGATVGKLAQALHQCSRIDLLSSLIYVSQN
As to the kind of experiment: Selectivity interaction (KinomeScan (DiscoverX)) EUB0000229b RIPK1. To be noted: at 10 µM.

Chain of Mitogen-activated protein kinase 10 (P53779 whole entry, canonical isoform): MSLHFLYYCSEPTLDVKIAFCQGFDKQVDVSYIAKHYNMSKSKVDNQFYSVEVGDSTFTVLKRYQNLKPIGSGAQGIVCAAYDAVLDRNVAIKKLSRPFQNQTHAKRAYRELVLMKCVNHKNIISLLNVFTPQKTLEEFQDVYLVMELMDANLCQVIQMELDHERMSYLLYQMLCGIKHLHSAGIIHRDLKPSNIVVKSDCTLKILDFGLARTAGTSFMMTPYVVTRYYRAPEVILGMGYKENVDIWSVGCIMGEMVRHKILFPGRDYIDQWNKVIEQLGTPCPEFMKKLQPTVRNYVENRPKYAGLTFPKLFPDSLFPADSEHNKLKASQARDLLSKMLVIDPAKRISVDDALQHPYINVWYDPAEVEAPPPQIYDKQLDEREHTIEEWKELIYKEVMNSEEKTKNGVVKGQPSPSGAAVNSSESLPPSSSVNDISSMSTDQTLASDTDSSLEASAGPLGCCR
Chain of Mitogen-activated protein kinase 6 (Homo sapiens) (Q16659 whole entry): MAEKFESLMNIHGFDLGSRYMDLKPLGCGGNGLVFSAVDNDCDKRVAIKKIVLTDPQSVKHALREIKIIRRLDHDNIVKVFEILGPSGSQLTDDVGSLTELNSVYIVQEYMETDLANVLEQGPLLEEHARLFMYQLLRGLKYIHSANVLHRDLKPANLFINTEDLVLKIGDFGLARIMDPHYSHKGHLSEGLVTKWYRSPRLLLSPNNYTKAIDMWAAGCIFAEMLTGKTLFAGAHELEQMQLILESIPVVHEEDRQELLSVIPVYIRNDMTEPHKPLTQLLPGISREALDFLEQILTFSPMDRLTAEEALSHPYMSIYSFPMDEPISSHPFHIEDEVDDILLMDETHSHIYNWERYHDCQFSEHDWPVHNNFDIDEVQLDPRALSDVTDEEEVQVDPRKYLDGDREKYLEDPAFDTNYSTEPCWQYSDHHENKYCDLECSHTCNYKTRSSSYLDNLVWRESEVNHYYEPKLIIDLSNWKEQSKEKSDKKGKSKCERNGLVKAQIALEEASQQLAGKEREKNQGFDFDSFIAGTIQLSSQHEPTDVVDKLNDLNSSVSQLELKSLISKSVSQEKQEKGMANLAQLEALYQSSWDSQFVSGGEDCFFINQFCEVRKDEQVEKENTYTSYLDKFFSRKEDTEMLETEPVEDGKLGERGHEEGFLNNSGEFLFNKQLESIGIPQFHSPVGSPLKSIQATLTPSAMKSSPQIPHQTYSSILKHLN
Chain of Serine/threonine-protein kinase/endoribonuclease IRE1 (Homo sapiens) (O75460 19-977 limits assumed): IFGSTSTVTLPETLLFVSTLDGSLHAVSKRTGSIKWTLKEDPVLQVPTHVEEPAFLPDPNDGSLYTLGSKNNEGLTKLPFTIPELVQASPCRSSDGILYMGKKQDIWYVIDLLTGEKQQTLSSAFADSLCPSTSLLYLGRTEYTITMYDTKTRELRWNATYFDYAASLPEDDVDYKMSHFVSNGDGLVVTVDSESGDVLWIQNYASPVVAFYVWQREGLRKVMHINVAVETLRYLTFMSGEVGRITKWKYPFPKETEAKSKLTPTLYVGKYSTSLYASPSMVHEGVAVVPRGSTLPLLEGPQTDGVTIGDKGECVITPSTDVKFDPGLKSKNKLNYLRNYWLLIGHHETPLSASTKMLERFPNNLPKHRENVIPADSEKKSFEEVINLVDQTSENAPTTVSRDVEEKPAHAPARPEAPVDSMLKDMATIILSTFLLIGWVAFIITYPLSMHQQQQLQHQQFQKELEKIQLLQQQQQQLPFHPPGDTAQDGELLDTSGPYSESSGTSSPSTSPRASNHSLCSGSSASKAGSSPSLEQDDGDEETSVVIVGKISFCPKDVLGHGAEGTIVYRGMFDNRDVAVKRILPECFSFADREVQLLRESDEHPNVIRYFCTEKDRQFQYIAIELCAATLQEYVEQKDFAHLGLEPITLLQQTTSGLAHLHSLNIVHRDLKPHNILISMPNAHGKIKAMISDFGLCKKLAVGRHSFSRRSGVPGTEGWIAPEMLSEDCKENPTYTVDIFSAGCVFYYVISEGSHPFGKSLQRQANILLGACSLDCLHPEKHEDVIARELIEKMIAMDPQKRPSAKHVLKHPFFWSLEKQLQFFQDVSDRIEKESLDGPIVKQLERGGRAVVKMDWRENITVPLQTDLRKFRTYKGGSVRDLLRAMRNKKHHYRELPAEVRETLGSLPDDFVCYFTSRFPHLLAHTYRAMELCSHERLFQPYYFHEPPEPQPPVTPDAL

Take `Cn1cc(-n2cnc3c(NCc4nc5cc(Cl)c(Cl)cc5[nH]4)nc(N4CCOCC4)nc32)cn1`: the % of control in [1] was -2.38%.

With `COCC(=O)NC/C=C/c1ccc2ncnc(Nc3ccc(Oc4ccc(C)nc4)c(C)c3)c2c1` [CP-724714], the % of control in test [2] was found to be 70%; in test [3], 68%.

Regarding `O=C(NOC[C@H](O)CO)c1ccc(F)c(F)c1Nc1ccc(I)cc1F`, in test [4], the % of control is 100%.

Consider `Cc1cc([C@@H](C)Nc2ccccc2C(=O)O)c2nc(N3CCOCC3)cc(=O)n2c1` [AZD-6482], for which, in [5], the % of control amounted to 90%.

In turn, `CC[C@@H]1[C@H](F)C(=O)N[C@@H]1COc1nccc2cc(C(N)=O)c(OC)cc12` [ZIMLOVISERTIB] displayed a % of inhibition in [6] of 19.6%.

Regarding `C=CC(=O)Nc1cc(-n2c(=O)ccc3cnc4ccc(-c5ccc(NS(C)(=O)=O)cc5)cc4c32)ccc1C`, in test [7], the % of control is 87%.

`CN(C)C/C=C/C(=O)Nc1ccc(C(=O)N2CCCC(Nc3ncc(Cl)c(-c4c[nH]c5ccccc45)n3)C2)cc1` (stereo not drawn): the % of control in [8] was determined as 92%; in [9] it was 98%.

Turning to `CN(C)CCOc1ccc(-c2nc(-c3ccncc3)c(-c3ccc4c(c3)CC/C4=N\O)[nH]2)cc1`, in [10], the % of control was 92%.

Regarding `O[C@H]1CC[C@H](Nc2ncc3nc(Nc4c(F)cc(F)cc4F)n([C@H]4CCOC4)c3n2)CC1`, in test [11], the % of control was 24%.

Take `Nc1cnc(N2CCc3cc(S(=O)(=O)Nc4c(F)cc(Cl)cc4F)cc(N4CCCC4=O)c32)nc1` [TP-020n]: the % of control in test [12] was 80%.

Consider `COc1cc(N(C)c2ccnc3ccc(C(F)(F)F)cc23)cc(OC)c1OC`, for which the % binding in test [13] came to 98%.
